Measurements taken from patent publication US8883723B2, “Conjugate of insulin and vitamin B12 for oral delivery” (Syracuse University, priority 2007, dated 2014).
Like-named read-outs stand apart in the source and are kept apart here.

Key:
obese subjects = settings: cited from earlier work
Intrinsic Factor = test: Spectrophotometric Intrinsic Factor in vitro binding studies; settings: 50 mM HEPES
Description: Intrinsic Factor binding studies. Intrinsic Factor (10 mg, […]) was dissolved in 1 mL dH2O. A 50 μL aliquot of B12-insulin was added to 950 μL of 50 mM HEPES buffer. Baseline was run against HEPES buffer and the first scan of B12-insulin was taken without Intrinsic Factor. A 5 μL aliquot of Intrinsic Factor was added to the B12-insulin, mixed and a second scan was taken. This procedure was repeated for five additions of Intrinsic Factor.

[1] = system: STZ-induced diabetic rat model; test: Blood glucose response after oral gavage in the STZ-induced diabetic rat model; format: in vivo, Sprague Dawley rats; settings: STZ-induced diabetic rats
Source text: To examine the in vivo efficacy of the B12-insulin conjugate, blood from the STZ-induced diabetic rat model was sampled by means of a jugular catheter prior to and subsequent to oral administration of the B12-insulin conjugate and compared to the blood glucose response following administration of an equimolar solution of free insulin (FIG. 8A and B).
Animals. Male Sprague Dawley rats (323±36; ±SD; n=12) were purchased pre-catheterised (Jugular vein) from Charles River Laboratories (Wilmington, Mass.), acclimatised for three days and then rendered insulin-deficient via infusion of streptozotocin (STZ; 60 mg/kg body weight) dissolved in citrate buffer and used within 15 min of preparation. Blood glucose concentration was assessed over four days to ensure fasting levels of greater than 14 mmol/L (>250 mg/dl) were reached. Animals were housed individually and maintained on a 12-hr light-dark (0600-1800 h) cycle with free access to food (standard laboratory chow; Scotts' Distributing, Inc) and water. Maintenance of animals and experimental protocols were conducted in accordance with federal regulations and approved by the Syracuse University Institutional Animal Care and Use Committee (Protocol Number SU 09-102)
Animal experimental design. On the day of experimentation, animals were fasted for 4 hours prior to the sampling of blood (50 μl) and the B12-insulin compound (100 nm/ml) was subsequently administered via oral gavage (1 ml). Blood was then sampled at 30-, 60-, 90-, 120-, 150-, 180-, 210-, 240-, 270- and 300-min after the administration of the conjugate for the calculation of area under the blood glucose curve (YSI 2300 STAT PLUS, YSI Incorporated, Yellow Springs, Ohio). Two control groups were used in this set of experiments; the first received a molar-equivalent concentration (100 nm) of free insulin (1 ml) while the second control group received the same quantity of the B12-insulin conjugate as the experimental group, however the conjugate was dissolved in 10^5-fold excess B12.

[2] = Melting circular dichroism studies (222 nm); format: physicochemical; settings: 50 mM HEPES
Description: Melting circular dichroism (CD) studies. Circular dichroism (CD) was performed on an Aviv model 202 spectrometer set at 222 nm with a 1 mL Quartz cuvette. All samples were prepared in 50 mM HEPES buffer (pH 9.7) with 25 mM carbonate and 10 mM EDTA and heated from 25 to 80° C. in 1° increments then cooled from 80 to 25° C. in the same increment. Sample concentrations ranged from 1.00 μM to 1.35 μM. […] All results were duplicated per batch and run for every batch prior to in vivo testing.

[3] = humans; cited from earlier work
humans [4] = settings: cited from earlier work
humans [5] = settings: cited from earlier work; for decrease in caloric intake: total dose 2 nmol/m^2 body-surface area, 90-min infusion
[6] = in vivo; cited from earlier work
[7] = native insulin, Tietze et al. 1953; cited from earlier work
[8] = oral-enteric route; cited from earlier work

CC(C)CC(N(C)C)C1(c2ccc(Cl)cc2)CCC1 (stereo not drawn) [sibutramine]
mean weight loss (obese subjects): 10% | reduction of acute caloric intake (obese subjects): 16%

B12-insulin conjugate: Bovine insulin conjugated using CDI at B strand lysine29 to the 5′-hydroxyl group of B12; carbamate linked conjugate
binding to Intrinsic Factor (Intrinsic Factor): recognizing the B12-insulin conjugate | binding to Intrinsic Factor (Intrinsic Factor; listed as insulin-B12 conjugate): successful binding | reduction of blood glucose levels compared with free insulin ([1]; oral administration): more effective than free insulin | time of nadir in the blood glucose response ([1]; oral administration): 4 h | greater decrease in the area under the blood glucose curve compared to free insulin ([1]; oral gavage 1 ml of 100 nm/ml, 300 min, vs equimolar free insulin, p=0.056): 4.7 fold | melting temperature (circular dichroism) [2]: ~65 °C | melting temperature (circular dichroism) ([2]; listed as B12-insulin): 55 °C

Cyanocobalamin [B12]
uptake capacity [3]: 1-2 μg per dosage

GLP-1(7-36)amide: Glucagon-like peptide-1 (7-36) amide, endogenous incretin peptide
average acute reduction of food intake (humans [4]; infusion, meta-analysis): 11.7% | weight loss (humans [4]; prandial subcutaneous injections for 5 days, obese but otherwise healthy subjects): 0.55 kg

PYY3-36: truncated form of Peptide YY, endogenous appetite suppressing peptide
reduction in calorie intake (humans [5]; lean humans, i.v. infusion 0.8 pmol/kg/min, free-choice buffet meal 2 hours after end of infusion): approximately 36% | decrease in caloric intake (humans [5]; lean subjects): 31% | decrease in caloric intake (humans [5]; obese subjects): 30% | time for plasma level to return to baseline after end of infusion [6]: ≤ 30 min

insulin
half-life [7]: 10 min | bioavailability [8]: about 5%
